Experimental data as given in ChEMBL document CHEMBL1141279, “Benzylphenethylamine alkaloids from Hosta plantaginea with inhibitory activity against tobacco mosaic virus and acetylcholinesterase” (J Nat Prod, 2007).
Calls of active or inactive are those of the source. The rule behind the calls is not given here.

Key:
Acetylcholinesterase = Acetylcholinesterase (Homo sapiens, UniProt P22303)
Description: Inhibition of AChE by Ellman method

Tobacco mosaic virus [1] = assay: Antiviral activity against Tobacco mosaic virus U1 after 72 hrs by half leaf method; assay type: functional, organism-based; details: for IC50: U1, 72 h
Tobacco mosaic virus [2] = assay: Antiviral activity against Tobacco mosaic virus U1 at 1 ug/mL after 72 hrs by half leaf method; assay type: functional; details: U1, 72 h

Chain of Acetylcholinesterase (P22303 whole entry): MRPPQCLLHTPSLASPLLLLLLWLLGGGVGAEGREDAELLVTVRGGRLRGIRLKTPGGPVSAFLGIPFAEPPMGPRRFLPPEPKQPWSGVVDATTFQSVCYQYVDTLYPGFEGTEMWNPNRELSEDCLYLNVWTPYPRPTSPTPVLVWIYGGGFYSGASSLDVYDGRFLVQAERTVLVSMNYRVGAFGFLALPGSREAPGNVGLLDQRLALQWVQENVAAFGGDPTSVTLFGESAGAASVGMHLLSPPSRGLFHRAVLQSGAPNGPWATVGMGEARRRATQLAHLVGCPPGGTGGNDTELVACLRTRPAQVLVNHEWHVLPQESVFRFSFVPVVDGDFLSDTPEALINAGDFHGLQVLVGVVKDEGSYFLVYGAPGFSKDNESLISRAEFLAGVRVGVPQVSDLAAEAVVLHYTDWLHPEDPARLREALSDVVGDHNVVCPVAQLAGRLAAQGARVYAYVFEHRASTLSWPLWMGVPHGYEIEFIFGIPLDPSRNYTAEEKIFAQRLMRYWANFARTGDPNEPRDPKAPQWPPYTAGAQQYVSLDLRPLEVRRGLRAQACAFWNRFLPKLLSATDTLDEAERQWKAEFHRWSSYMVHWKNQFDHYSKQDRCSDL

SMILES | IC50 (Acetylcholinesterase) [µM] | Activity (Tobacco mosaic virus [1]) | other results
COc1cc2c(c(OC)c1OC)C(=O)O[C@]21[C@H](O)[C@@H](O)C=C2CCN(C)[C@H]21 | 113 |  | 
O=C1N[C@H]2[C@H](O)[C@H](O)[C@@H](O)C[C@@H]2c2cc3c(cc21)OCO3 |  |  | IC50 (Tobacco mosaic virus [1]): 1.8 µM
CC(=O)O[C@H]1[C@H]2c3cc4c(cc3CN3CCC(=C[C@@H]1O)[C@H]23)OCO4 | 0.96 |  | 
COc1cc2c(cc1OC)[C@]1(OC2=O)[C@H](O)[C@@H](O)C=C2CCN(C)[C@H]21 | 2.32 | inactive | 
CO[C@@H]1C=C[C@@]23c4cc5c(cc4[C@H](O)N(C[C@@H]2O)[C@H]3C1)OCO5 |  | inactive | 
COc1cc2c(c(OC)c1OC)C(=O)O[C@@H]1CC=C3CCN(C)[C@H]3[C@H]21 |  | inactive | 
O[C@@H]1C=C[C@@]23c4cc5c(cc4CN(C[C@@H]2O)[C@H]3C1)OCO5 |  | inactive | 
CO[C@@H]1C=C[C@@]23c4cc5c(cc4CN(C[C@@H]2O)[C@H]3C1)OCO5 [(+)-HAEMANTHAMINE] | 452 |  | 
COc1ccc2c3c(c4cc(OC)c(OC)cc4c2c1)C[C@H]1CCCN1C3 [(-)-ANTOFINE] |  |  | inhibition at 1 µg/mL (Tobacco mosaic virus [2]): 65%
COc1cc2c(cc1OC)-c1cccc3c1N(CC3)C2 [ASSOANINE] | 3.87 |  | 
O[C@H]1[C@H]2c3cc4c(cc3CN3CCC(=C[C@@H]1O)[C@H]23)OCO4 [LYCORINE] | 155 | inactive | 
Oc1ccc2c3c1O[C@H]1C[C@@H](O)C=C[C@@]31CCNC2 [NORSANGUININE] | 1.43 | inactive | 
NC(=O)c1ncn([C@@H]2O[C@H](CO)[C@@H](O)[C@H]2O)n1 [RIBAVIRIN] |  |  | IC50 (Tobacco mosaic virus [1]): 2990 µM
[O-]c1cc2c3c(c1)c1cc4c(cc1c[n+]3CC2)OCO4 [UNGEREMINE] | 3.85 |  | 
